US10927141B2 (priority 2018, dated 2021)
Read-outs that look alike come from different tables or passages of the source.

Key:
[1] = Dynamic vapor sorption (DVS), gravimetric moisture sorption; type: physicochemical; details: at 80% Relative Humidity, 25° C.
Description: Dynamic Vapor Sorption (DVS) were collected conducted using an SMS DVS Advantage 1 system. For each sample analyzed approximately 10 mg of material was transferred into the DVS instrument and recorded the weight change with respect to the atmospheric humidity at 25° C. using the following parameters: Equilibrium dm/dt: 0.01%/min, (for min: 10 min and max: 180 min); drying setting were 0% RH for 120 min; RH (%) measurement step at 10% and RH (%) measurement step scope of 0-90-0%.

[2] = type: physicochemical; details: 1 w
Description: For each salt, approximately 5 mg compound was added into an 8 mL glass vial with a multi-hole aluminum foil cap, and kept at 60° C., 40° C./75% RH for 1 week. […] Appearance by visual observation were recorded followed by purity assessment and XPRD data collection on the residual solids.

[3] = type: physicochemical

SMILES	gravimetric moisture sorption [1]	Final purity ([2]; 40° C./75% RH)	XRPD patterns ([2]; 40° C./75% RH)	Final purity ([2]; 60° C.)	XRPD patterns ([2]; 60° C.)	Final purity ([3]; 1.2 million lux-hrs)	XRPD patterns ([3]; 1.2 million lux-hrs)	Final purity ([3]; Dark control)	XRPD patterns ([3]; Dark control)
COCC1(O)CCC2(C)C(CCC3C2CCC2(C)C(C(=O)Cn4ccnc4)CCC32)C1.O=C(O)c1ccc2ccccc2c1O (stereo not drawn)	about 4.6 % (by weight)	–	–	–	–	–	–	–	–
COCC1(O)CCC2(C)C(CCC3C2CCC2(C)C(C(=O)Cn4ccnc4)CCC32)C1.O=C1OC(C(O)CO)C(O)=C1O (stereo not drawn) [Compound 1 Ascorbate (Form A)]	about 5.7 % (by weight)	–	–	–	–	–	–	–	–
COC[C@@]1(O)CC[C@@]2(C)[C@@H](CC[C@@H]3[C@@H]2CC[C@]2(C)[C@@H](C(=O)Cn4ccnc4)CC[C@@H]32)C1.O=S(=O)(O)c1ccccc1 [Compound 1 Besylate (Form A)]	about 4.0 % (by weight)	–	–	–	–	–	–	–	–
COC[C@@]1(O)CC[C@@]2(C)[C@@H](CC[C@@H]3[C@@H]2CC[C@]2(C)[C@@H](C(=O)Cn4ccnc4)CC[C@@H]32)C1.O=S(=O)(O)NC1CCCCC1 [Compound 1 Cyclamate (Form A)]	about 7.3 % (by weight)	–	–	–	–	–	–	–	–
COCC1(O)CCC2(C)C(CCC3C2CCC2(C)C(C(=O)Cn4ccnc4)CCC32)C1.O=CC(O)C(O)C(O)C(O)C(=O)O [Compound 1 D-Glucuronate (Form A)]	about 1.4 % (by weight)	–	–	–	–	–	–	–	–
COCC1(O)CCC2(C)C(CCC3C2CCC2(C)C(C(=O)Cn4ccnc4)CCC32)C1.CS(=O)(=O)O (stereo not drawn) [Mesylate (Form A)]	–	99.4	Form D	99.4	Form A	99.3	Form A	99.4	Form A
COCC1(O)CCC2(C)C(CCC3C2CCC2(C)C(C(=O)Cn4ccnc4)CCC32)C1.O=S(=O)(O)c1ccc2ccccc2c1 (stereo not drawn) [Napsylate (Form A)]	–	99.1	Form A	99.1	Form A	99.0	Form A	99.1	Form A
COC[C@@]1(O)CC[C@@]2(C)[C@@H](CC[C@@H]3[C@@H]2CC[C@]2(C)[C@@H](C(=O)Cn4ccnc4)CC[C@@H]32)C1.O=C(O)C(=O)O [Oxalate (Form A)]	–	98.4	Form A	98.3	Form A	98.2	Form A	98.9	Form A
COCC1(O)CCC2(C)C(CCC3C2CCC2(C)C(C(=O)Cn4ccnc4)CCC32)C1.Nc1ccc(C(=O)O)c(O)c1 (stereo not drawn) [P-aminosalicylate (Form A)]	–	97.0	Form A	91.5	Form A	95.7	Form A	95.8	Form A
COC[C@@]1(O)CC[C@@]2(C)[C@@H](CC[C@@H]3[C@@H]2CC[C@]2(C)[C@@H](C(=O)Cn4ccnc4)CC[C@@H]32)C1.O=P(O)(O)O [Phosphate (Form A)]	–	99.2	Form A	99.2	Form A	98.9	Form A	99.2	Form A
COC[C@@]1(O)CC[C@@]2(C)[C@@H](CC[C@@H]3[C@@H]2CC[C@]2(C)[C@@H](C(=O)Cn4ccnc4)CC[C@@H]32)C1.O=S(=O)(O)O [Sulfate (Form A)]	–	97.5	Form A	96.2	Form A	97.1	Form A	97.6	Form A
COCC1(O)CCC2(C)C(CCC3C2CCC2(C)C(C(=O)Cn4ccnc4)CCC32)C1.Cc1ccc(S(=O)(=O)O)cc1 (stereo not drawn) [Tosylate (Form A)]	–	99.5	–	99.5	Form A	99.0	Form A	99.5	Form A
